In brackets after ≈: the same amount, converted by molar mass.
What was measured:
[1] = test system: Staphylococcus epidermidis; assay: In vitro antibacterial activity against Staphylococcus epidermidis 012GO39 OxaTei-R; assay type: functional
[2] = test system: Streptococcus pyogenes; assay: In vitro antibacterial activity against Streptococcus pyogenes O2A1UC1
[3] = biological target: DNA gyrase (Escherichia coli) (UniProt P0AES6+P0AES4); assay: In vitro inhibition of supercoiling activity of Escherichia coli DNA gyrase as the ratio of IC50 of Novobiocin and IC50 of compound; assay type: protein-complex assay
[4] = test system: Enterococcus faecium; assay: In vitro antibacterial activity against Enterococcus faecium 02D31P2 VanTeiEry-R; assay type: functional
[5] = test system: Staphylococcus aureus; assay: In vitro antibacterial activity against Staphylococcus aureus 011GO76 OfloOxaEry-R; assay type: functional
[6] = test system: Staphylococcus aureus; assay: In vitro antibacterial activity against Staphylococcus aureus 011HT1 Nov-R; assay type: functional
[7] = test system: Staphylococcus aureus; assay: In vitro antibacterial activity against Staphylococcus aureus 011HT3; assay type: functional

| SMILES | MIC [1] [µg/mL] | MIC [2] [µg/mL] | Ratio [3] | MIC [4] [µg/mL] | MIC [5] [µg/mL] | MIC [6] [µg/mL] | MIC [7] [µg/mL] |
| --- | --- | --- | --- | --- | --- | --- | --- |
| CO[C@@H]1[C@@H](OC(=O)c2ccc(C)[nH]2)[C@@H](O)[C@H](Oc2ccc3c(OCCN4CCOC(CO)C4)cc(=O)oc3c2C)OC1(C)C (stereo partly drawn) | 0.6 (≈ 0.973 µM) | 10 (≈ 16.2 µM) | 0.25 | > 40 | > 40 | 40 (≈ 64.9 µM) | 1.2 (≈ 1.95 µM) |
| CO[C@@H]1[C@@H](OC(=O)c2ccc(C)[nH]2)[C@@H](O)[C@H](Oc2ccc3c(OCCn4ccnc4)cc(=O)oc3c2C)OC1(C)C | 0.3 (≈ 0.529 µM) | 1.2 (≈ 2.11 µM) | 0.22 | 10 (≈ 17.6 µM) | 1.2 (≈ 2.11 µM) | > 20 | 0.6 (≈ 1.06 µM) |
| CO[C@@H]1[C@@H](OC(=O)c2ccc(C)[nH]2)[C@@H](O)[C@H](Oc2ccc3c(O)c(NC(=O)c4ccc(O)c(CC=C(C)C)c4)c(=O)oc3c2Cl)OC1(C)C [CHLOROBIOCIN] | < 0.04 | < 0.04 | – | – | < 0.04 | 0.15 (≈ 0.215 µM) | < 0.04 |
| CO[C@@H]1[C@@H](OC(=O)c2ccc(C)[nH]2)[C@@H](O)[C@H](Oc2ccc3c(Cn4ccnc4)cc(=O)oc3c2C)OC1(C)C | 1.2 (≈ 2.23 µM) | 5 (≈ 9.3 µM) | 1 | > 40 | 5 (≈ 9.3 µM) | > 40 | 1.2 (≈ 2.23 µM) |
| CNCCOc1cc(=O)oc2c(C)c(O[C@@H]3OC(C)(C)[C@H](OC)[C@@H](OC(=O)c4ccc(C)[nH]4)[C@H]3O)ccc12 | 1.2 (≈ 2.26 µM) | 5 (≈ 9.42 µM) | 2.3 | > 40 | 2.5 (≈ 4.71 µM) | 20 (≈ 37.7 µM) | 2.5 (≈ 4.71 µM) |
| CO[C@@H]1[C@@H](OC(=O)c2ccc(C)[nH]2)[C@@H](O)[C@H](Oc2ccc3c(OCCN4CCC[C@H]4CO)cc(=O)oc3c2C)OC1(C)C | 2.5 (≈ 4.16 µM) | 5 (≈ 8.32 µM) | 0.66 | 20 (≈ 33.3 µM) | – | 40 (≈ 66.6 µM) | 0.6 (≈ 0.999 µM) |
| CO[C@@H]1[C@@H](OC(=O)c2ccc(C)[nH]2)[C@@H](O)[C@H](Oc2ccc3c(OCCN)cc(=O)oc3c2C)OC1(C)C | 1.2 (≈ 2.32 µM) | 5 (≈ 9.68 µM) | 0.81 | 20 (≈ 38.7 µM) | 5 (≈ 9.68 µM) | 20 (≈ 38.7 µM) | 2.5 (≈ 4.84 µM) |
| CO[C@@H]1[C@@H](OC(=O)c2ccc(C)[nH]2)[C@@H](O)[C@H](Oc2ccc3c(CN4CCN(C)CC4)cc(=O)oc3c2C)OC1(C)C | 2.5 (≈ 4.39 µM) | 10 (≈ 17.6 µM) | 0.46 | > 40 | 5 (≈ 8.78 µM) | 40 (≈ 70.2 µM) | 5 (≈ 8.78 µM) |
| CO[C@@H]1[C@@H](OC(=O)c2ccc(C)[nH]2)[C@@H](O)[C@H](Oc2ccc3c(OCCSc4ncc[nH]4)cc(=O)oc3c2C)OC1(C)C | < 0.04 | 0.6 (≈ 1 µM) | 0.33 | 5 (≈ 8.34 µM) | 5 (≈ 8.34 µM) | 2.5 (≈ 4.17 µM) | 0.08 (≈ 0.133 µM) |
| CO[C@@H]1[C@@H](OC(=O)c2ccc(C)[nH]2)[C@@H](O)[C@H](Oc2ccc3c(CN4CCC[C@H]4CO)cc(=O)oc3c2C)OC1(C)C | 1.2 (≈ 2.1 µM) | 2.5 (≈ 4.38 µM) | 0.3 | 20 (≈ 35 µM) | 1.2 (≈ 2.1 µM) | 10 (≈ 17.5 µM) | 0.6 (≈ 1.05 µM) |
| CO[C@@H]1[C@@H](OC(=O)c2ccc(C)[nH]2)[C@@H](O)[C@H](Oc2ccc3c(CN4CCCC4)cc(=O)oc3c2C)OC1(C)C | 2.5 (≈ 4.62 µM) | 10 (≈ 18.5 µM) | 0.5 | > 40 | 5 (≈ 9.25 µM) | 40 (≈ 74 µM) | 2.5 (≈ 4.62 µM) |
| CO[C@@H]1[C@@H](OC(=O)c2ccc(C)[nH]2)[C@@H](O)[C@H](Oc2ccc3c(OCCN4CCN(C)CC4)c(Cl)c(=O)oc3c2C)OC1(C)C | 5 (≈ 7.88 µM) | 10 (≈ 15.8 µM) | 0.33 | > 40 | 10 (≈ 15.8 µM) | > 40 | 5 (≈ 7.88 µM) |
| CO[C@@H]1[C@@H](OC(=O)c2ccc(C)[nH]2)[C@@H](O)[C@H](Oc2ccc3c(CN4CCNC(c5ccco5)C4)cc(=O)oc3c2C)OC1(C)C (stereo partly drawn) | 0.6 (≈ 0.965 µM) | 1.2 (≈ 1.93 µM) | 0.33 | 10 (≈ 16.1 µM) | 10 (≈ 16.1 µM) | 10 (≈ 16.1 µM) | 0.6 (≈ 0.965 µM) |
| CO[C@@H]1[C@@H](OC(=O)c2ccc(C)[nH]2)[C@@H](O)[C@H](Oc2ccc3c(CSc4nc[nH]n4)cc(=O)oc3c2C)OC1(C)C | 0.3 (≈ 0.526 µM) | 0.6 (≈ 1.05 µM) | 0.4 | 2.5 (≈ 4.38 µM) | 0.6 (≈ 1.05 µM) | 10 (≈ 17.5 µM) | 0.3 (≈ 0.526 µM) |
| CO[C@@H]1[C@@H](OC(=O)c2ccc(C)[nH]2)[C@@H](O)[C@H](Oc2ccc3c(CN)cc(=O)oc3c2C)OC1(C)C | 5 (≈ 10.3 µM) | 40 (≈ 82.2 µM) | 1.8 | > 40 | 40 (≈ 82.2 µM) | > 40 | 10 (≈ 20.6 µM) |
| CO[C@@H]1[C@@H](OC(=O)c2ccc(C)[nH]2)[C@@H](O)[C@H](Oc2ccc3c(OCCN(C)C)c(Cl)c(=O)oc3c2C)OC1(C)C | 5 (≈ 8.63 µM) | 40 (≈ 69.1 µM) | 0.33 | > 40 | 20 (≈ 34.5 µM) | > 40 | 10 (≈ 17.3 µM) |

| SMILES | MIC [1] [µg/mL] | MIC [2] [µg/mL] | Ratio [3] | MIC [4] [µg/mL] | MIC [5] [µg/mL] | MIC [6] [µg/mL] | MIC [7] [µg/mL] |
| --- | --- | --- | --- | --- | --- | --- | --- |
| CO[C@@H]1[C@@H](OC(=O)c2ccc(C)[nH]2)[C@@H](O)[C@H](Oc2ccc3c(OCCn4cnc(-c5cccnc5)c4)cc(=O)oc3c2C)OC1(C)C | 0.08 (≈ 0.124 µM) | 1.2 (≈ 1.86 µM) | 0.63 | > 40 | > 40 | > 40 | 0.6 (≈ 0.931 µM) |
| CO[C@@H]1[C@@H](OC(=O)c2ccc(C)[nH]2)[C@@H](O)[C@H](Oc2ccc3c(CN4CCNCC4c4ccccc4)cc(=O)oc3c2C)OC1(C)C (stereo partly drawn) | 0.6 (≈ 0.95 µM) | 1.2 (≈ 1.9 µM) | 0.17 | 5 (≈ 7.91 µM) | 5 (≈ 7.91 µM) | 5 (≈ 7.91 µM) | 1.2 (≈ 1.9 µM) |
| CO[C@@H]1[C@@H](OC(=O)c2ccc(C)[nH]2)[C@@H](O)[C@H](Oc2ccc3c(OCCN4CCN(C)CC4)cc(=O)oc3c2C)OC1(C)C | 1.2 (≈ 2 µM) | 10 (≈ 16.7 µM) | 0.5 | 40 (≈ 66.7 µM) | 2.5 (≈ 4.17 µM) | 20 (≈ 33.4 µM) | 1.2 (≈ 2 µM) |
| CO[C@@H]1[C@@H](OC(=O)c2ccc(C)[nH]2)[C@@H](O)[C@H](Oc2ccc3c(CSc4ncc[nH]4)cc(=O)oc3c2C)OC1(C)C | 0.6 (≈ 1.05 µM) | 2.5 (≈ 4.39 µM) | 0.35 | 20 (≈ 35.1 µM) | 10 (≈ 17.6 µM) | 20 (≈ 35.1 µM) | 0.6 (≈ 1.05 µM) |
| CO[C@@H]1[C@@H](OC(=O)c2ccc(C)[nH]2)[C@@H](O)[C@H](Oc2ccc3c(OCCN4CCOCC4)c(Cl)c(=O)oc3c2C)OC1(C)C | 2.5 (≈ 4.03 µM) | 5 (≈ 8.05 µM) | 0.17 | > 40 | 2.5 (≈ 4.03 µM) | > 40 | 1.2 (≈ 1.93 µM) |
| CO[C@@H]1[C@@H](OC(=O)c2ccc(C)[nH]2)[C@@H](O)[C@H](Oc2ccc3c(CN4CCC(O)CC4)cc(=O)oc3c2C)OC1(C)C | 0.6 (≈ 1.05 µM) | 2.5 (≈ 4.38 µM) | 0.22 | 20 (≈ 35 µM) | 1.2 (≈ 2.1 µM) | 20 (≈ 35 µM) | 0.6 (≈ 1.05 µM) |
| CO[C@@H]1[C@@H](OC(N)=O)[C@@H](O)[C@H](Oc2ccc3c(O)c(NC(=O)c4ccc(O)c(CC=C(C)C)c4)c(=O)oc3c2C)OC1(C)C [NOVOBIOCIN] | 0.08 (≈ 0.131 µM) | 0.15 (≈ 0.245 µM) | – | 0.3 (≈ 0.49 µM) | < 0.04 | 20 (≈ 32.6 µM) | < 0.04 |
| CO[C@@H]1[C@@H](OC(=O)c2ccc(C)[nH]2)[C@@H](O)[C@H](Oc2ccc3c(OCCN4CCOCC4)cc(=O)oc3c2C)OC1(C)C | 0.15 (≈ 0.256 µM) | 2.5 (≈ 4.26 µM) | 0.22 | 20 (≈ 34.1 µM) | 0.6 (≈ 1.02 µM) | 10 (≈ 17 µM) | 0.3 (≈ 0.511 µM) |
| CO[C@@H]1[C@@H](OC(=O)c2ccc(C)[nH]2)[C@@H](O)[C@H](Oc2ccc3c(Cn4cncn4)cc(=O)oc3c2C)OC1(C)C | 0.6 (≈ 1.11 µM) | 2.5 (≈ 4.64 µM) | 0.4 | 40 (≈ 74.3 µM) | 2.5 (≈ 4.64 µM) | 40 (≈ 74.3 µM) | 1.2 (≈ 2.23 µM) |
| CO[C@@H]1[C@@H](OC(=O)c2ccc(C)[nH]2)[C@@H](O)[C@H](Oc2ccc3c(OCCN(C)C)cc(=O)oc3c2C)OC1(C)C | 2.5 (≈ 4.59 µM) | 10 (≈ 18.4 µM) | 0.57 | > 40 | 5 (≈ 9.18 µM) | 40 (≈ 73.4 µM) | 2.5 (≈ 4.59 µM) |
| CO[C@@H]1[C@@H](OC(=O)c2ccc(C)[nH]2)[C@@H](O)[C@H](Oc2ccc3c(OCCn4cncn4)cc(=O)oc3c2C)OC1(C)C | < 0.04 | 1.2 (≈ 2.11 µM) | 0.57 | 10 (≈ 17.6 µM) | 10 (≈ 17.6 µM) | 20 (≈ 35.2 µM) | 0.3 (≈ 0.528 µM) |
| CO[C@@H]1[C@@H](OC(=O)c2ccc(C)[nH]2)[C@@H](O)[C@H](Oc2ccc3c(CN4CCNCC4)cc(=O)oc3c2C)OC1(C)C | 5 (≈ 9 µM) | 20 (≈ 36 µM) | 2.3 | > 40 | 20 (≈ 36 µM) | > 40 | 10 (≈ 18 µM) |
| CCN1CCN(Cc2cc(=O)oc3c(C)c(O[C@@H]4OC(C)(C)[C@H](OC)[C@@H](OC(=O)c5ccc(C)[nH]5)[C@H]4O)ccc23)CC1 | 2.5 (≈ 4.28 µM) | 20 (≈ 34.3 µM) | 1 | > 40 | 10 (≈ 17.1 µM) | > 40 | 5 (≈ 8.57 µM) |
| CO[C@@H]1[C@@H](OC(=O)c2ccc(C)[nH]2)[C@@H](O)[C@H](Oc2ccc3c(CN4CCNC(c5ccccc5)C4)cc(=O)oc3c2C)OC1(C)C (stereo partly drawn) | 1.2 (≈ 1.9 µM) | 2.5 (≈ 3.96 µM) | 0.28 | 10 (≈ 15.8 µM) | 5 (≈ 7.91 µM) | 10 (≈ 15.8 µM) | 1.2 (≈ 1.9 µM) |
| CO[C@@H]1[C@@H](OC(=O)c2ccc(C)[nH]2)[C@@H](O)[C@H](Oc2ccc3c(OCCN4CCNC(c5ccccc5)C4)cc(=O)oc3c2C)OC1(C)C (stereo partly drawn) | 0.6 (≈ 0.907 µM) | 1.2 (≈ 1.81 µM) | 0.33 | 5 (≈ 7.56 µM) | 10 (≈ 15.1 µM) | 5 (≈ 7.56 µM) | 0.3 (≈ 0.453 µM) |

From ChEMBL document CHEMBL1132005, “Structure-activity relationship in two series of aminoalkyl substituted coumarin inhibitors of gyrase B” (1999)
